According to patent US12275686B2, “NO donor compound, preparation method thereof, pharmaceutical composition comprising same, and use thereof” (SOUTHEAST UNIVERSITY, priority 2022, dated 2025):

How the values were obtained:
[1] = test system: H9c2 cells; assay: NO release level in H9c2 cells under normoxia or hypoxia, Griess method; type: cell-based; details: for NO release (%) / NO release amount (%): H9c2 cells, 4 h; for NO release (%): hypoxia (1% O2); for NO release amount (%): normoxia (21% O2)
Description: H9c2 cells were revived, cultured with DMEM medium, and placed in a carbon dioxide incubator to allow the cells to adhere to the wall for growth. After the cells grew to reach an appropriate density, cells were inoculated in a multi-well plate and placed in the carbon dioxide incubator for culture for 24 h at 37° C., 5% CO2, and saturated humidity until the cells adhered to the wall, the supernatant was discarded, and 2 mL of fresh DMEM medium was added. Then, a certain concentration (5, 10, 15 μM) of compounds and the reference drug of isosorbide dinitrate were added. After culturing in a normoxic incubator (37° C., 21% O2) or an anoxic incubator (37° C., 1% O2) for 4 h, the supernatant was removed, and the cells in the multi-well plate were collected in 1.5 mL centrifuge tubes and centrifuged at 1000 rpm for 5 min, the supernatant was discarded, 1 mL of PBS was added into the centrifuge tubes to resuspend the cells, and the cells were centrifuged again, the PBS was discarded. 100 μL of cell lysis buffer (special for NO measurement) was added to the centrifuge tubes, placed on ice for half a minute, and then centrifuged for 5 min at 4° C. and 13300 rpm, and the supernatant was collected. 50 μL of the supernatant was taken in a 96-well plate, three parallel groups were set for each sample, and 50 μL of Griess reagent I and 50 μL of Griess reagent II were added in sequence. The OD value of each well was measured at 540 nm with a full-wavelength microplate reader, and the NO concentration was calculated using the standard curve, as shown in Tables 1 and 2.

[2] = test system: H9c2 cells; assay: Vitality of H9c2 cells under normoxia or hypoxia (CCK8); type: cell-based; details: 4 h; for improvement on the cell viability: normoxic condition, FIG. 1A
Description: The cells were washed twice with 5 mL PBS, 1 mL trypsin was added to digest the monolayer cultured H9c2 cells, a single cell suspension was prepared with serum-containing culture medium, and 5000-10000 cells per well were inoculated in a 96-well culture plate. The volume of culture medium per well is 100 μL, and the edge wells are filled with sterilized pure water. The culture plate was moved into a carbon dioxide incubator for culture for 24 h at 37° C., 5% CO2, and saturated humidity until the cells adhere to the wall. 100 μL culture medium in the well was aspirated, 50 μL fresh culture medium was added into the well, and different concentrations of compounds and reference drug isosorbide dinitrate were given respectively to the well. 50 μL drug was added to each well, 3 parallel groups and 1 normoxic group without drug addition as control were set, and concentration gradient of the drug is 10, 1, 0.1, 0.01, 0.001 μM. The normoxic group was incubated in a normal incubator at 5% CO2 and 37° C. for 4 h; and the hypoxic group was incubated in a hypoxic incubator (concentration of 02≤1%) at 37° C. for 4 h. After the culture was completed, 10 μL CCK8 reagent was added to each well and the normoxic group and the hypoxic group continued to be cultured in a normoxic incubator for 4 h, and the culture was terminated. The absorbance of each well was measured at 450 nm with a microplate reader to calculate the cell survival rate of cells at different concentrations, as shown in FIGS. 1A and 1B.

[3] = test system: mTORC1 and TSC2-P proteins; assay: Expression level of myocardial injury marker proteins in myocardial hypoxia mouse, Western blot; type: in vivo; details: hypoxia model mouse pretreated with 20 mg/kg, FIG. 3
Text: Western Blot gel preparation kit (Biyuntian Biotechnology Co., Ltd., Shanghai), BCA detection kit for protein quantification (Biyuntian Biotechnology Co., Ltd., Shanghai), ionization buffer, wet transfer solution, primary antibody (anti-TSC2-P, Abgent, 1:1000, A-AP3825a; anti-mTORC1, Abcam, 1:1000, ab120224; anti-GAPDH, Bioworld Technology, 1:500, AP0063), secondary antibody (Goat Anti-Rabbit IgG (H+L) HRP, 1:3000, Bioworld Technology, BS13278), 6-8-week-old male Kunming mouse.
The changes of protein expression levels are analyzed based on Western Blot bands.
• (1) Mouse heart tissue protein was extracted and centrifuged at 12,000 rpm for 15 min to collect the protein, the protein was quantified using a BCA kit, and added to boiling water in loading buffer and cook for 5 min for later use; • (2) SDS-PAGE gel was prepared and the sample was loaded to separate protein bands; • (3) After transferring the protein bands to the PVDF membrane, the membrane was blocked with milk to incubate primary and secondary antibodies in sequence. The protein bands were visualized using a chemiluminescence developer to analyze the changes of protein expression in each group, as shown in FIG. 3.

[4] = test system: heart of mouse hypoxia model; assay: NO release level in the heart of mouse hypoxia model, NO detection kit; type: in vivo; details: mouse hypoxia model (85 mg/kg isoproterenol), 20 mg/kg intraperitoneally before modeling, FIG. 2
Text: NO detection kit (Biyuntian Biotechnology Co., Ltd., Shanghai), heart tissue homogenate of hypoxia modeling and drug-given mouse, and blank control group mouse, and 6-8-week-old male Kunming mouse.
NO has chemical activity and is rapidly converted into NO3^− and NO2^− in the body, and NO2^− is further converted into NO3^−. NO^3− is reduced to NO2^− […], NO2^− has characteristic absorption at 540 nm, the absorbance is detected at 540 nm by a microplate reader, and the NO concentration is calculated using a standard curve.
• (1) Hypoxia model (85 mg/kg isoproterenol), the drug-given group was intraperitoneally injected with 20 mg/kg compound I1 before hypoxia modeling; • (2) Cardiac tissue homogenate protein was obtained by centrifugation at 12,000 rpm for 15 min; • (3) The working solution in the NO detection kit was prepared, the working solution was added to each group of proteins, after incubation, and each group of proteins was detected with an microplate reader to analyze the NO content in each group, as shown in FIG. 2.

SMILES | NO release (%) ([1]; compound 10 μM) | NO release amount (%) ([1]; compound 10 μM) | NO release (%) ([1]; compound 5 μM) | NO release (%) ([1]; compound 15 μM) | NO release amount (%) ([1]; compound 5 μM) | NO release amount (%) ([1]; compound 15 μM) | other results
Cc1ccc([N+](=O)[O-])c(COC(=O)Oc2ccc(N(C)N=O)cc2)c1 [Compound I9, 4-((methylnitroso)amino) phenyl (2-nitro-5-methylbenzyl) carbonate] | 0.95 | 0.23 | – | – | – | – | –
CN(N=O)c1ccc(OC(=O)OCc2ccccc2[N+](=O)[O-])cc1 [Compound I4, 4-((methylnitroso)amino) phenyl (2-nitrobenzyl) carbonate] | 20.62 | 2.35 | 20.78 | 18.33 | 1.02 | 0.98 | improvement on the cell viability ([2]; 1 μM): slight improvement on the cell viability
Cc1ccc(COC(=O)Oc2ccc(N(C)N=O)cc2)c([N+](=O)[O-])c1 [Compound I7, 4-((methylnitroso)amino) phenyl (2-nitro-4-methylbenzyl) carbonate] | 1.83 | 0.12 | – | – | – | – | –
CN(N=O)c1ccc(OC(=O)OCc2ccc([N+](=O)[O-])cc2Cl)cc1 [Compound I2, 4-((methylnitroso)amino) phenyl (2-chloro-4-nitrobenzyl) carbonate] | 30.96 | 3.34 | 34.75 | 27.37 | 1.58 | 0.93 | –
CN(N=O)c1ccc(OC(=O)OCc2ccc(Cl)cc2[N+](=O)[O-])cc1 [Compound I5, 4-((methylnitroso)amino) phenyl (2-nitro-4-chlorobenzyl) carbonate] | 0.96 | 0.15 | – | – | – | – | –
O=[N+]([O-])O[C@H]1CO[C@H]2[C@@H]1OC[C@H]2O[N+](=O)[O-] [Isosorbide dinitrate, isosorbide dinitrate] | – | – | – | – | – | – | NO release amount ([1]; hypoxia condition, different concentrations (5, 10, 15 μM)): less than that under the normoxia condition; viability of hypoxic cells ([2]; hypoxic condition (O2≤1%), 0.001-10 μM, FIG. 1B): a certain improvement on the cell viability at high concentration; improvement on the cell viability ([2]; 0.001-10 μM): does not improve the cell viability
CN(N=O)c1ccc(OC(=O)OCc2ccc(Br)cc2[N+](=O)[O-])cc1 [Compound I6, 4-((methylnitroso)amino) phenyl (2-nitro-4-bromobenzyl) carbonate] | 0.94 | 0.17 | – | – | – | – | –
CN(N=O)c1ccc(OC(=O)OCc2cc(Cl)ccc2[N+](=O)[O-])cc1 [Compound I8, 4-((methylnitroso)amino) phenyl (2-nitro-5-chlorobenzyl) carbonate] | 0.93 | 0.27 | – | – | – | – | –
CN(N=O)c1ccc(OC(=O)OCc2ccc([N+](=O)[O-])cc2)cc1 [Compound I1, 4-((methylnitroso)amino) phenyl (4-nitrobenzyl) carbonate] | 24.38 | 0.84 | 25.24 | 20.15 | 0.24 | 0.16 | anti-myocardial hypoxic damage effect [3]: excellent anti-myocardial hypoxic damage effect; expression of mTORC1 in the hearts ([3]; Western blot): restored to near a level of the normal group; NO level in the heart [4]: significantly higher than that of the other two groups
Cc1cc([N+](=O)[O-])ccc1COC(=O)Oc1ccc(N(C)N=O)cc1 [Compound I3, 4-((methylnitroso)amino) phenyl (2-methyl-4-nitrobenzyl) carbonate] | 45.42 | 0.92 | 40.58 | 43.21 | 0.43 | 0.32 | –
